Source: patent EP0126043A1, “Carbohydrate derivatives and compositions thereof for therapeutic or diagnostic use” (priority 1983, dated 1984)
≈ marks a conversion by molar mass, not a printed value.

Columns and labels:
S. pneumoniae [1] = test: Inhibition of adherence of pneumococci to human pharyngeal epithelium cells (bacteria preincubated with free receptor); type: cell-based; conditions: for activity at 1000 µg/mL / activity at 5000 µg/mL / activity at 10000 µg/mL / activity at 100 µg/mL: read-out: Adherence % of control Average; for inhibition of adherence (result in words): pretreatment of the pneumococci with the substance; for Inhibition of adherence % of control Average: Conc. 200 µg/ml, bacteria preincubated with the glycoconjugate before adding epithelium cells, adhesion in percent of saline control; for IC50: read-out: concentration for 50% inhibition of adherence
Procedure: (§1) Two strains of S. Pneumoniae, EF3114 and EF 10276 (both of the capsular type 6A isolated from the nasopharynx of patients having inflammation in the middle ear) were maintained in a lyophilized state. For adherence test the lyophiles were transferred to blood agar plates and cultivated over night, were then allowed to grow for18 hours in a synthetic medium (Ref. 1) supplemented with 2 g/l ascorbic acid and such as described in (Ref. 2). The bacteria were harvested by centrifugation and suspended in saline solution (Ref. 3).
(§2) Binding to humane nasopharyngeal epithelium cells was investigated in vitro as previously described (Ref. 3). Bacterial cells (10^9/ml) and pharyngeal epithelium cells from a healthy donor (10^4/ml) were mixed, centrifugated at 1500xg for 10 minutes and incubated at 37°C for 30 minutes. After washing twice in 2.5 ml salines for separating epithelium cells from non-adhering bacteria the number of bacteria adhering at 40 epithelium cells were counted and the average number per cell was determined.
For inhibition of adhesion the bacterium concentration giving an average adhesion value of 20-300 bacteria per cell was determined. This inoculate was then preincubated with dilutions of the solutions of potential receptor activity for 15 minutes at 37°C.
Epithelium cells were added and adhesion testing was carried out as described. The adhesion was given in percent of the saline as a control sample.

S. pneumoniae [2] = test: Induction/increase of pneumococcal adherence by coating epithelium cells with glycoconjugate; type: cell-based; conditions: for Increase of adherence % of control Average: Conc. 200 µg/ml, epithelium cells preincubated with glycoconjugate, washed and used for adherence testing; for effect of coating of pharyngeal epithelium cells on adherence (result in words): coating with 200 µg/ml
Procedure: as §1
as §2, with “healthy male” for “healthy”
Association of receptor active glycolipids with epithelium cells or erythrocytes can increase binding to epithelium cells already containing the receptor or induce binding of cells which have not previously contained receptor. Rabbit erythrocytes (100 ul of a 5 % suspension) were mixed with a neolactotetraosyl ceramide, sialylneolactotetra- osyleeramide or globotetraosylceramide (500 ul of . suspensions of 200 ug/ml) and incubated at 37° for 3 hours with rotation (Ref. 16). After elimination of unbound glycolipid by repeated washing the erythrocyte concentration was again adjusted to 5 % and used for haemagglutination. Parallel to the tests regarding inhibition of adherence the humane nasopharyngeal epithelium cells were pretreated with decreasing concentrations of glycolipid, incubated for 2 hours at 37°C, washed and used for testing of adherence.

Molecule	activity at 1000 µg/mL (S. pneumoniae [1]; Streptococcus pneumoniae) [%]	activity at 5000 µg/mL (S. pneumoniae [1]; Streptococcus pneumoniae) [%]	activity at 10000 µg/mL (S. pneumoniae [1]; Streptococcus pneumoniae) [%]	activity at 100 µg/mL (S. pneumoniae [1]; Streptococcus pneumoniae) [%]	also measured
CO[C@H]1O[C@H](CO)[C@@H](O[C@@H]2O[C@H](CO)[C@H](O)[C@H](O)[C@H]2O)[C@H](O)[C@H]1NC(C)=O [Substance 8, Methyl 2-acetamido-2-deoxy-4-O-(β-D-galactopyranosvl)-α--D-glycopyranoside]	96	98	129		inhibition of adherence (result in words) (S. pneumoniae [1]): inactive
CO[C@@H]1O[C@H](CO)[C@H](O)[C@H](O[C@@H]2O[C@H](CO)[C@@H](O[C@@H]3O[C@H](CO)[C@H](O)[C@H](O)[C@H]3O)[C@H](O)[C@H]2NC(C)=O)[C@H]1O [Substance 15, Methyl 3-0-2-acetamido-2-deoxy-4-0-(β-D-galactopyranosyl)--β-D-glycopyranosyl-β-D-galactopyranoside]	45	11	2	60	
neolactotetraosyl ceramide [Substance 2]					Inhibition of adherence % of control Average (S. pneumoniae [1]): 59 % of control; adherence, % of the saline as a control (S. pneumoniae [1]; pretreatment of the pneumococci, at 200 µg/ml, 15 min): 59%; Increase of adherence % of control Average (S. pneumoniae [2]): 190 % of control; effect of coating of pharyngeal epithelium cells on adherence (result in words) (S. pneumoniae [2]): increased adherence
CC(=O)N[C@H]1[C@H](O[C@H]2[C@@H](O)[C@@H](CO)O[C@@H](O[C@H]3[C@H](O)[C@@H](O)C(O)O[C@@H]3CO)[C@@H]2O)O[C@H](CO)[C@@H](O[C@@H]2O[C@H](CO)[C@H](O)[C@H](O)[C@H]2O)[C@@H]1O (stereo partly shown) [Substance 5, Neolactotetraose]	28	0	1	52	IC50 (S. pneumoniae [1]; Streptococcus pneumoniae): ~400 µg/mL (≈ 565 µM)
CO[C@@H]1O[C@H](CO)[C@H](O)[C@H](O[C@@H]2O[C@H](CO)[C@@H](O)[C@H](O)[C@H]2NC(C)=O)[C@H]1O [Substance 12, Methyl 3-0-(2-acetamido-2-deoxy-β-D-glycopyranosyl)-β-D--galactopyranoside]	105	15	4	66	
Galβ1 → 3 GlcNAc-β1-O-Bz [Substance 17]					Adherence % of control Average (S. pneumoniae [1]; Conc. 0.1 mg/ml): 88 % of control; Adherence % of control Average (S. pneumoniae [1]; Conc. 1 mg/ml): 86 % of control; Adherence % of control Average (S. pneumoniae [1]; Conc. 5 mg/ml): 51 % of control; Adherence % of control Average (S. pneumoniae [1]; Conc. 10 mg/ml): 8 % of control
CO[C@@H]1O[C@H](CO)[C@@H](O[C@@H]2O[C@H](CO)[C@H](O)[C@H](O[C@@H]3O[C@H](CO)[C@@H](O[C@@H]4O[C@H](CO)[C@H](O)[C@H](O)[C@H]4O)[C@H](O)[C@H]3NC(C)=O)[C@H]2O)[C@H](O)[C@H]1O [Substance 16, Methyl 4-0-{3-0-[2-acetamido-2-deoxy-4-0-(D-galactopy-ranasyl)-β-D-glucopyranosyl]-β-D-galactopyranosyl}-β-D-glucopyranoside]	11	1	4	104	
globotetraosylceramide					effect of coating of pharyngeal epithelium cells on adherence (result in words) (S. pneumoniae [2]): no effect
globotetraosylceramide [Substance 4, reference compound]					Increase of adherence % of control Average (S. pneumoniae [2]): 100 % of control
CO[C@@H]1O[C@H](CO)[C@H](O[C@@H]2O[C@H](CO)[C@@H](O)[C@H](O)[C@H]2NC(C)=O)[C@H](O)[C@H]1O [Substance 11, Methyl 4-0-(2-acetamido-2-deoxy-β-D-glycopyranosyl)-β-D--galactopyranoside]	72	73	75	65	inhibition of adherence (result in words) (S. pneumoniae [1]): inactive
CC(=O)N[C@H]1C(O)O[C@H](CO)[C@@H](O[C@@H]2O[C@H](CO)[C@H](O)[C@H](O)[C@H]2O)[C@@H]1O (stereo partly shown) [Substance 10, N-acetyllactose amine, reference compound]	95	144	127		inhibition of adherence (result in words) (S. pneumoniae [1]): inactive
N-acetylneuraminosyl neolactotetraosyl ceramide [Substance 3, reference compound]					Inhibition of adherence % of control Average (S. pneumoniae [1]): 100 % of control; inhibition of adherence (result in words) (S. pneumoniae [1]): no effect; Increase of adherence % of control Average (S. pneumoniae [2]): 94 % of control; effect of coating of pharyngeal epithelium cells on adherence (result in words) (S. pneumoniae [2]): no effect
CO[C@@H]1O[C@H](CO)[C@@H](O[C@@H]2O[C@H](CO)[C@H](O)[C@H](O)[C@H]2O)[C@H](O)[C@H]1NC(C)=O [Substance 9, Methyl 2-acetamido-2-deoxy-4-O-(β-D-galactopyranosyl)-β--D-glycopyranoside]	96	45	29		minimal effective concentration (S. pneumoniae [1]; Streptococcus pneumoniae, read-out: concentration at which adherence was inhibited): ~5000 µg/mL
CCO[C@@H]1O[C@H](CO)[C@@H](O[C@@H]2O[C@H](CO)[C@H](O)[C@H](O)[C@H]2O)[C@H](O)[C@H]1NC(C)=O [Substance 13, Galβ1→4GlcNAcβ1-O-Et]	67	38	31		
CC(=O)N[C@H]1[C@H](O[C@H]2[C@@H](O)[C@@H](CO)O[C@@H](O[C@H]3[C@H](O)[C@@H](O)C(O)O[C@@H]3CO)[C@@H]2O)O[C@H](CO)[C@@H](O)[C@@H]1O[C@@H]1O[C@H](CO)[C@H](O)[C@H](O)[C@H]1O (stereo partly shown) [Substance 6, Lactotetraose]	25	4		68	IC50 (S. pneumoniae [1]; Streptococcus pneumoniae): ~400 µg/mL (≈ 565 µM)
CCO[C@@H]1O[C@H](CO)[C@@H](O[C@@H]2O[C@H](CO)[C@H](O)[C@H](O)[C@H]2O)[C@H](O)[C@H]1O [Substance 14, Ethyl 4-0-β-D-galactopyranosyl-β-D-glycopyranoside]	85	78	63		
